Earlier results in patent US20120097160A1, “AGGLOMERATE FORMULATIONS INCLUDING ACTIVE PHARMACEUTICAL AGENTS WITH TARGETED PARTICLE SIZES” (SCHERING CORPORATION, priority 2009, published 2012).
Read-outs that look alike come from different tables or passages of the source.

C[C@@H]1C[C@H]2[C@@H]3CCC4=CC(=O)C=C[C@]4(C)[C@@]3(Cl)[C@@H](O)C[C@]2(C)[C@@]1(OC(=O)c1ccco1)C(=O)CCl [Mometasone furoate, 9,21-Dichloro-11(beta), 17-dihydroxy-16(alpha)-methylpregna-1,4-diene-3,20-dione 17-(2 furoate)]
solubility (acetone): soluble | solubility (chloroform): soluble | solubility (ethanol): slightly soluble | solubility (isopropanol): slightly soluble | solubility (methanol): slightly soluble | solubility (tetrahydrofuran): freely soluble | solubility (water): practically insoluble
